The subject of series [1] is corpus callosum of mouse pups. The series can be described thus: Developmental myelination in mouse pups. To be noted: for number of CC1+ oligodendrocytes in the lateral corpus callosum / portion/length of corpus callosum covered by MBP+ fibres: pups treated daily for 4 days from postnatal day 2, clobetasol 2 mg/kg, miconazole 10 mg/kg i.p., vs vehicle. Format: in vivo. The text has this:
On postnatal day 6 the pups were anaesthetized using ketamine and xylazine and euthanized by transcardial perfusion with 4% PFA. Tissue was fixed overnight in 4% PFA, equilibrated in 30% sucrose, and embedded in OCT. Sections (20 μm) were cut and processed for CC1 and MBP immunohistochemistry. ImageJ was then used to count and measure area of the corpus callosum as well as measure the extent of the corpus callosum length covered by MBP1 processes. Eight coronal sections containing corpus callosum rostral to the hippocampus from at least three animals per group were used for these analyses. To quantitate extent of MBP in the corpus callosum, a line was drawn through the centre of the corpus callosum from the lateral tip to the dorsal most extent of MBP expression in the corpus callosum. The length of this line was measured and then the dorsal-most point of the line was extended to the dorsal tip of the corpus callosum and measured to yield the length of the lateral callosum. The two numbers were divided to get the MBP/corpus callosum proportion. A two-tailed t-test was used to compare drug—with vehicle-treated groups.

Series [2] concerns muscarinic receptor subtypes (M1-M5). As to the kind of experiment: Muscarinic receptor antagonism, GeneBLAzer or Tango cellular reporter assays. To be noted: 1 μM. Format: cell-based. How it is done: GeneBLAzer or Tango assays were performed to determine level of acetylcholine muscarinic receptor M1, M3, M5 (GeneBLAzer), M2 and […] (Tango) antagonism.
Background: A reporter such as luciferase makes a cellular process visible.

The test system of series [3] is 414 different kinase isoforms. The series can be described thus: Kinase profiling (LanthaScreen, Z'-LYTE, Adapta). The following applies: 414 kinase isoforms. It counts as biochemical. How it is done: LanthaScreen, Z9-LYTE, and Adapta kinase assays were performed by Select Screen (Life Technologies). LanthaScreen Eu kinase assays were performed in Greiner low-volume 384-well plates. Assay buffer consisted of 50 mM HEPES pH 7.5, 0.01% BRIJ-35, 10 mM MgCl2, 1 mM EGTA. Each well consisted of this mixture: 4.0 μl of 4 μM test drug in assay buffer, 8 μl of 2× kinase/Eu antibody mixture, and 4 μl of 4×Alexa Fluor 647 tracer. Plates were incubated for 60 min at room temperature (˜22° C.), then Alexa Fluor 647 emission (665 nm) and Europium emission (615 nm) read on a fluorescent plate reader. Data were analysed by generating the emission ratio (665 nm/615 nm) for each test point and normalizing 0% to control wells with no known inhibitor and 100% to control wells with highest concentration of known inhibitor.
Z′-LYTE assays were performed in Corning, low volume 384-well plates. Assay buffer consisted of 50 mM HEPES pH 7.5, 0.01% BRIJ-35, 10 mM MgCl2, 1 mM EGTA. […] Coumarin emission (445 nm) and fluorescein emission (520 nm) were read on a fluorescent plate reader. Data were analysed by normalizing out background fluorescence then generating the emission ratio (445 nm/520 nm) for each test point. […]
Adapta assays were performed in Corning, low volume 384-well plates. […] Alexa Fluor 647 emission (665 nm) and europium emission (615 nm) were read on a fluorescent plate reader. […]
On the technique in general: TR-FRET usually uses a lanthanide donor and a delayed reading to cut background.

Another series has as its system ERK1/2. As to the kind of experiment: Western blot of ERK1/2 phosphorylation in OPCs. It counts as cell-based, mouse. To be noted: OPCs treated for 1 h. The protocol:
EpiSC-derived OPCs were seeded into poly-Lornithine/laminin coated six-well plates and allowed to attach for 2 h in DMEM/F12 without additional factors. Cells were treated with indicated inhibitors or DMSO for 1 h-SCH772984 (ChemieTek, […]), SB590885 (Tocris, 10 nM), LY294002 (Tocris, 10 μM), and PD0325901 (Stemgent, 1 μM). Cells were then stimulated with drug or FGF2 (R&DSystems; 20 ng ml^−1) for 1 h and then lysed in 200 μL RIPA buffer (0.15 M NaCl, 0.05M Tris, pH=8.0, 1 mM EDTA, 1% Triton X-100, 0.1% SDS, 10% glycerol, HALT protease and phosphatase inhibitor (Thermo Fisher) added just before use) and incubated on ice for 20 min. Lysates were centrifuged at 4° C. and supernatant collected. Protein concentrations were determined by Pierce BCA protein assay kit (Thermo Fisher). Equal amounts of protein were resolved in a reduced manner on NuPAGE 4-12% Bis-Tris gels (Life Technologies) and transferred onto PVDF membranes (Life Technologies). Blots were blocked in either 5% BSA (phosphoprotein) or 5% milk (non phosphoprotein). Primary antibodies were all from the same vendor (Cell Signaling) and included phospho-Erk1/2 (4370S, clone D13.14.4E; 1:2,000), ERK1/2 (9107S, clone 3A7; 1:2,000), phospho-glucocorticoid receptor (4161S; 1:1,000), and glucocorticoid receptor (12041, clone D6H2L; 1:1,000) followed by incubation with HRP-conjugated secondary antibodies and chemiluminescent enhancement by West Pico substrate (Thermo Fisher).
On the technique in general: A western blot detects proteins with antibodies after separation by electrophoresis.

The next series concerns MOG35-55 EAE mouse model. The series can be described thus: External validation of MOG35-55 EAE at an independent contract laboratory. It counts as in vivo. To be noted: 10 mg/kg, n=12 mice per group. How it is done:
EAE was induced by immunizing 10-week-old C57BL/6 female mice with […] injection of […] complete Freund's adjuvant emulsion (Hooke Laboratories). One hour after immunization, mice were given 100 ng of pertussis toxin by 100 μl intraperitoneal injection. A second dose of pertussis toxin was administered the next day. EAE onset was monitored daily and scored using a clinical scale where 0 represented no abnormality; 1, limp tail; 2, limp tail and hind limb weakness; 3, hind limb paralysis; 4, hind limb paralysis and forelimb weakness; and 5, moribund. […] Once mice reached peak of disease ˜day 15; clinical score=3) they were randomized into treatment groups, and drug or vehicle (DMSO in saline) was administered intraperitoneally daily for 10 days (n=12-16 mice per group). […] Experimenters were blinded to the identity of the treatments and animals were scored daily. Cumulative disease scores for each animal were calculated during the treatment period, and a two-tailed t-test compared drug—with vehicle-treated groups. The extent of recovery for each animal was calculated as the difference between the peak disease score and the score at the end of each experiment, and a two-tailed t-test was used to compare each treatment with vehicle. […]

The mark [4] stands for this setting: 2 mg/kg daily i.p., postnatal day 2-6.

SMILES strings stand for the structures. “Also recorded” adds a separate entry of the source.

Turning to `C[C@H]1C[C@H]2[C@@H]3CCC4=CC(=O)C=C[C@]4(C)[C@@]3(F)[C@@H](O)C[C@]2(C)[C@@]1(O)C(=O)CCl` [clobetasol], in series [1] (setting [4]), the “mortality of treated pups” value is given as “some animals of the cohort died before end of treatment”; the “sickness and body weight of treated pups” value was “exhibited sickness on the basis of this treatment, with low body weight”. Further, in series [1], the “number of CC1+ oligodendrocytes in the lateral corpus callosum” value is given as “significant increase in the number of CC1^+ oligodendrocytes; also recorded: marked increase in the number of CC1-positive oligodendrocytes” and the “portion/length of corpus callosum covered by MBP+ fibres” value is “significantly larger portion of the corpus callosum was populated by MBP^+ fibre tracts; also recorded: significant increase in the length of the corpus callosum covered with aligned MBP^+ fibres”. Besides, the “inhibition of muscarinic receptor subtypes M1-M5” value in series [2] is “Neither miconazole nor clobetasol inhibited any of the five muscarinic receptor subtypes”. For the same compound, the “inhibition of kinase activity” value in series [3] was “Neither clobetasol nor miconazole inhibited any of the kinases tested”. Further, the “induction of ERK1/2 phosphorylation in OPCs” value in the series on ERK1/2 is “did not induce ERK1/2 phosphorylation”.

Turning to `Clc1ccc(COC(Cn2ccnc2)c2ccc(Cl)cc2Cl)c(Cl)c1` (stereo not shown) [miconazole], in series [1], the “number of CC1+ oligodendrocytes in the lateral corpus callosum” value is on record as “significant increase in the number of CC1^+ oligodendrocytes; also recorded: marked increase in the number of CC1-positive oligodendrocytes” and the “portion/length of corpus callosum covered by MBP+ fibres” value is “significantly larger portion of the corpus callosum was populated by MBP^+ fibre tracts; also recorded: significant increase in the length of the corpus callosum covered with aligned MBP^+ fibres”. Moreover, in series [2], the “inhibition of muscarinic receptor subtypes M1-M5” value is given as “Neither miconazole nor clobetasol inhibited any of the five muscarinic receptor subtypes”. Besides, in series [3], the “inhibition of kinase activity” value is “Neither clobetasol nor miconazole inhibited any of the kinases tested”. For the same compound, the “induction of ERK1/2 phosphorylation in OPCs” value in the series on ERK1/2 is “strong and sustained phosphorylation”. The “efficacy to reduce disease severity, independent validation” value in the series with MOG35-55 EAE mouse model is “independently validated the preclinical efficacy”.

Source of the values: US10653691B2, “Method of promoting remyelination” (Case Western Reserve University, priority 2013, dated 2020).
